These results are taken from US20140363391A1, “SYSTEM AND METHOD FOR ADMINISTERING POLOXAMERS AND ANESTHETICS WHILE PERFORMING CPR AND MINIMIZING REPERFUSION INJURY” (priority 2013, published 2014).

The data set has as its system animals receiving CPR. The data set can be described thus: Animal studies with administration of an anesthetic gas during CPR. Type of data set: in vivo. The conditions noted are these: compared with other inhaled anesthetics. The text has this: In one embodiment, the administered anesthetic includes sevoflurane. Other volatile anesthetics that may be administered include: halothane, enflurane, and desflurane isoflurane, xenon, helium and the like. […] These anesthetics may provide protective effects when administered before or during CPR and help stabilize the brain, heart, or body to help the heart, brain, and/or body to stay fresh. It is believed that some anesthetic agents provide these effects by attenuating the mitochondrial membrane permeability, or manipulating and protecting the mitochondrial membrane pores. It is believed that during ischemia, permeability pores in the mitochondria cell membrane open up causing the mitochondria to swell. In such a condition, the mitochondria are destroyed or damaged when blood flow is reestablished. The anesthetic may help protects against such damage, especially if the anesthetic is delivered or delivery is initiated early in reestablishing blood flow. Some volatile anesthetics like Xenon provide anesthesia by non-competitive inhibit N-methyl-D-aspartate receptors. Due to the fact that reperfusion injury occurs very early during the resuscitation efforts (within 2-3 minutes from the imitation of CPR) it is preferable that the anesthetic is delivered or delivery is initiated within the first 5 minutes of CPR efforts. […]

`FCOC(C(F)(F)F)C(F)(F)F` [Sevoflurane, sevoflurane]: the cardiodepressant effects entry is on record as “less of cardiodepressant effects” and the “protection from reperfusion injury” value is “significant protection from reperfusion injury”.
